# According to ChEMBL document CHEMBL1131957, “Structure-activity relationship of a series of diaminoalkyl substituted benzimidazole as neuropeptide Y Y1 receptor antagonists” (Bioorg Med Chem Lett, 1999):
# What was measured:
# [1] = target: T1, Neuropeptide Y receptor type 1 (Homo sapiens, UniProt P25929); assay: Ability to displace [125I]-peptide YY binding to cloned human Neuropeptide Y receptor type 1 expressed in AV-12 cells; format: cell-based, AV12
# T1 sequence (P25929 whole entry): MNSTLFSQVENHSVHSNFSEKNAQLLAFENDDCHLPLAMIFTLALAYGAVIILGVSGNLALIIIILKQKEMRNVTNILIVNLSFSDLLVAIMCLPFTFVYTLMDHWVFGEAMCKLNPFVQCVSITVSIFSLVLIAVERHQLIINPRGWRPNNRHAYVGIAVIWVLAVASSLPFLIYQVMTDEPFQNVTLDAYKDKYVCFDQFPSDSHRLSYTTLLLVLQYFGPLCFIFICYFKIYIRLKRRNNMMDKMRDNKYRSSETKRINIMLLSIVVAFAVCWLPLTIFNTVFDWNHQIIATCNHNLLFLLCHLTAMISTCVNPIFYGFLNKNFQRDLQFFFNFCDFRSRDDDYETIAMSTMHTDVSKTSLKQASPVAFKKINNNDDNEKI
# SK-N-MC = assay: Ability to antagonize 1 nM NPY''s inhibition of forskolin-stimulated cyclic AMP accumulation in SK-N-MC cells; format: functional, cell-based, Homo sapiens
# [2] = target: Neuropeptide Y receptor type 4 (Homo sapiens) (UniProt P50391); assay: Ability to displace [125I]-peptide YY binding to cloned human Neuropeptide Y receptor type 4 expressed in CHO cells at a concentration of 1 uM; format: cell-based
# [3] = target: T2, Neuropeptide Y receptor type 5 (Homo sapiens) (UniProt Q15761); assay: Ability to displace [125I]-peptide YY binding to cloned human Neuropeptide Y receptor type 5 expressed in CHO cells at a concentration of 1 uM; format: cell-based
# T2 sequence (whole entry): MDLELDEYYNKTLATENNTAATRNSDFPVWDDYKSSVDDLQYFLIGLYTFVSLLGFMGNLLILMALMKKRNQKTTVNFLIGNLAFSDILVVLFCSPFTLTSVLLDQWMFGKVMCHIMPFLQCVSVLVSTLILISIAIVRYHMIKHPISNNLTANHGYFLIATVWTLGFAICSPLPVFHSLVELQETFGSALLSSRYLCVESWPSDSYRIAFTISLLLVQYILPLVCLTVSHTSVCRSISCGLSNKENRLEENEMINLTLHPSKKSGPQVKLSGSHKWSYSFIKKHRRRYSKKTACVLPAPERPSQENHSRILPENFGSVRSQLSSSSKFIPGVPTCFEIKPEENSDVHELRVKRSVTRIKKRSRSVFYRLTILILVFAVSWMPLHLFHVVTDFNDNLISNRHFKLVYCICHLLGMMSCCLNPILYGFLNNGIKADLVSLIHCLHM
# [4] = target: T3, Neuropeptide Y receptor type 2 (Homo sapiens) (UniProt P49146); assay: Ability to displace [125I]-peptide YY binding to cloned human Neuropeptide Y receptor type 2 expressed in CHO cells at a concentration of 1 uM; format: cell-based
# T3 sequence (whole entry): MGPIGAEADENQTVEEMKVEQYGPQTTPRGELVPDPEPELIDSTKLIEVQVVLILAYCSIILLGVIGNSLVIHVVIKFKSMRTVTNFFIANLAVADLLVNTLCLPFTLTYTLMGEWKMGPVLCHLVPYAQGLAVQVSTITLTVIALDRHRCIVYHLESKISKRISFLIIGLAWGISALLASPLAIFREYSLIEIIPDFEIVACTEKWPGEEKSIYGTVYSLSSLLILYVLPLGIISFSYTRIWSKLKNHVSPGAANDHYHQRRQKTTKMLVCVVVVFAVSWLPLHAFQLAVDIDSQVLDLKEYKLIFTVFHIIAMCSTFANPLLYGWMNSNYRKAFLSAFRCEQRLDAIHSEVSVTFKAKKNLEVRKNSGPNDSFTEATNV
# Neuropeptide Y receptor type 4 (Homo sapiens), sequence (P50391 whole entry): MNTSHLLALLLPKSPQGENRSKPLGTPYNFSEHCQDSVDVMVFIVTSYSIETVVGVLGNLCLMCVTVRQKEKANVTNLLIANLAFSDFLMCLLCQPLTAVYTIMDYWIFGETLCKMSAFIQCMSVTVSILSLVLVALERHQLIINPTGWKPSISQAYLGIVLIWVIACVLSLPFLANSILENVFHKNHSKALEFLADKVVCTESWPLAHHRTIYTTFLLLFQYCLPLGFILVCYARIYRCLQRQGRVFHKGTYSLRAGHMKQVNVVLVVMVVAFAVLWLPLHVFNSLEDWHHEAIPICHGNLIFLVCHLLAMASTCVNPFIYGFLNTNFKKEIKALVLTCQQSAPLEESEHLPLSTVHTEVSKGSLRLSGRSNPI
Ki [1],SMILES,further results
393 pM,c1ccc(OCc2nc3c(OCCCN4CCCCC4)cccc3n2CCCC2CCN(CC3CCCCC3)CC2)cc1,–
285 pM,c1ccc(OCc2nc3c(OCCCN4CCCCC4)cccc3n2CCCC2CCN(CCC3CCCCC3)CC2)cc1,Ki (SK-N-MC): 5200 pM
290 pM,CC(C)CCN1CCC(CCCn2c(COc3ccccc3)nc3c(OCCCN4CCCCC4)cccc32)CC1,–
52 pM,Ic1ccc(CCN2CCC(CCCn3c(COc4ccccc4)nc4c(OCCCN5CCCCC5)cccc43)CC2)cc1,inhibition [2]: < 50%; inhibition [3]: < 50%; inhibition [4]: < 50%; Ki (SK-N-MC): 6000 pM
313 pM,Oc1ccc(CCN2CCC(CCCn3c(COc4ccccc4)nc4c(OCCCN5CCCCC5)cccc43)CC2)cc1,–
707 pM,C=CCCN1CCC(CCCn2c(COc3ccccc3)nc3c(OCCCN4CCCCC4)cccc32)CC1,–
191 pM,c1ccc(CCN2CCC(CCCn3c(COc4ccccc4)nc4c(OCCCN5CCCCC5)cccc43)CC2)cc1,–
106 pM,c1ccc(OCc2nc3c(OCCCN4CCCCC4)cccc3n2CCCC2CCN(CCCN3CCCCC3)CC2)cc1,Ki (SK-N-MC): 564 pM
4500 pM,c1ccc(OCc2nc3c(OCCCN4CCCCC4)cccc3n2CCCC2CCNCC2)cc1,–
829 pM,CC(C)CN1CCC(CCCn2c(COc3ccccc3)nc3c(OCCCN4CCCCC4)cccc32)CC1,–
183 pM,C(=C/c1ccccc1)/CN1CCC(CCCn2c(COc3ccccc3)nc3c(OCCCN4CCCCC4)cccc32)CC1,–
132 pM,O=C(CCCN1CCC(CCCn2c(COc3ccccc3)nc3c(OCCCN4CCCCC4)cccc32)CC1)c1ccccc1,–
112 pM,O=C(CCN1CCC(CCCn2c(COc3ccccc3)nc3c(OCCCN4CCCCC4)cccc32)CC1)c1ccccc1,–
1630 pM,C=CCN1CCC(CCCn2c(COc3ccccc3)nc3c(OCCCN4CCCCC4)cccc32)CC1,–
1620 pM,CN1CCC(CCCn2c(COc3ccccc3)nc3c(OCCCN4CCCCC4)cccc32)CC1,–
1610 pM,CC(C)N1CCC(CCCn2c(COc3ccccc3)nc3c(OCCCN4CCCCC4)cccc32)CC1,–
361 pM,c1ccc(CCCN2CCC(CCCn3c(COc4ccccc4)nc4c(OCCCN5CCCCC5)cccc43)CC2)cc1,Ki (SK-N-MC): 3400 pM

SMILES,Ki [1],further results
O=C(CN1CCC(N2CCCCC2)CC1)c1c(COc2ccc(Cl)cc2)n(CCCC2CCCNC2)c2ccccc12 (stereo not given),750 pM,–
